Test results reported in ChEMBL document CHEMBL4330071 (Eur J Med Chem, 2019).

Assays:
[1] = test system: MV4-11; assay: Induction of apoptosis in human MV4-11 cells assessed as viable cells at 0.5 uM after 24 hrs by Annexin V-FITC/propidium iodide staining based flow cytometric analysis (reference value: 95.19%); assay type: functional; details: MV4-11, 24 h, read-out: Activity
[2] = test system: K562; assay: Growth inhibition of FLT3 null human K562 cells at 10 uM after 72 hrs by CellTiter-Glo assay relative to control; assay type: functional; details: K562, 72 h, read-out: GI
[3] = biological target: T1, Macrophage colony-stimulating factor 1 receptor (Homo sapiens, UniProt P07333); assay: Binding affinity to wild-type human partial length CSF1R (I564 to S939 residues) expressed in bacterial expression system after 60 mins by Kinomescan method
T1 sequence (P07333 whole entry, the tested form may be a part): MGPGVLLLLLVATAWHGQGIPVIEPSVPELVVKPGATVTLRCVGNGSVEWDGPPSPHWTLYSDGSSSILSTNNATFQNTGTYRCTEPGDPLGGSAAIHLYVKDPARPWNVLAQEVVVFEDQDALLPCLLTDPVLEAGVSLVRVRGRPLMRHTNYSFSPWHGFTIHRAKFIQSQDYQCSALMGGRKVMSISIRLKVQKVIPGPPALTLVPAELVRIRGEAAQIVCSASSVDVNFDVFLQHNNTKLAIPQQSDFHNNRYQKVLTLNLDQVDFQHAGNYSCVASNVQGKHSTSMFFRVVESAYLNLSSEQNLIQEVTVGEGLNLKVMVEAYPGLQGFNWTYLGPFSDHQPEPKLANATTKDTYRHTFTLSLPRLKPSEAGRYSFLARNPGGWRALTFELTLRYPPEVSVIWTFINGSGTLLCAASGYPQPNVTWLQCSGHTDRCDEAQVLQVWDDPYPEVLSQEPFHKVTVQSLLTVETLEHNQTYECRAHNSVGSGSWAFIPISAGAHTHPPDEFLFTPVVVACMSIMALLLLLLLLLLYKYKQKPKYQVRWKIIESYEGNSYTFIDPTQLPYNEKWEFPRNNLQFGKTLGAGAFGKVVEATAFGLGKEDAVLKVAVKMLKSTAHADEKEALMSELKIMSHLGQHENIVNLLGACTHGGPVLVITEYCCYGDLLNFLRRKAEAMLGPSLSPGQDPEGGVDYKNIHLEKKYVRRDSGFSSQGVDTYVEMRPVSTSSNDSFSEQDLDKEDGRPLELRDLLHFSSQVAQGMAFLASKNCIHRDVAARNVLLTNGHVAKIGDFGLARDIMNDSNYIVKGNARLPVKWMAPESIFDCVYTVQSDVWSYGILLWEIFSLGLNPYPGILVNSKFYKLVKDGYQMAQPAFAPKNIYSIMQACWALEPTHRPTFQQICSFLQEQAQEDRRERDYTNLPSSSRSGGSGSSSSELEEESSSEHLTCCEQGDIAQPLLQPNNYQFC

[4] = test system: MV4-11; assay: Induction of apoptosis in human MV4-11 cells assessed as viable cells at 0.05 uM after 24 hrs by Annexin V-FITC/propidium iodide staining based flow cytometric analysis (reference value: 95.19%); assay type: functional; details: MV4-11, 24 h, read-out: Activity
[5] = test system: MV4-11; assay: Induction of apoptosis in human MV4-11 cells after 24 hrs by Annexin V-FITC/propidium iodide staining based flow cytometric analysis; assay type: functional, cell-based
[6] = biological target: Mitogen-activated protein kinase 14 (Homo sapiens) (UniProt Q16539); assay: Inhibition of human p38alpha assessed as residual activity at 10 uM using MBP as substrate preincubated for 20 mins followed by [gamma-33P]-ATP addition and measured after 120 mins by Hotspot assay relative to control
Sequence of Mitogen-activated protein kinase 14 (Homo sapiens) (Q16539 whole entry): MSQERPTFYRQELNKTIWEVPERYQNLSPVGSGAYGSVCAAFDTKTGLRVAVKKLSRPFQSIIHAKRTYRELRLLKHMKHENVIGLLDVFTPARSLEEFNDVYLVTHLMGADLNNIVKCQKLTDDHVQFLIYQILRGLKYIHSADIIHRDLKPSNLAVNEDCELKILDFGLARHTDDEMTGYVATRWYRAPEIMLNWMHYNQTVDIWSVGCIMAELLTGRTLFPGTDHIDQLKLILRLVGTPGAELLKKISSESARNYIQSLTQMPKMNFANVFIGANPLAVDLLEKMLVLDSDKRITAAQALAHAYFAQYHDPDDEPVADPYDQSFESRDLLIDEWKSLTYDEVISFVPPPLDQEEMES

[7] = biological target: Dual specificity mitogen-activated protein kinase kinase 1 (Homo sapiens) (UniProt Q02750); assay: Inhibition of human MEK1 assessed as residual activity at 10 uM using ERK2 as substrate preincubated for 20 mins followed by [gamma-33P]-ATP addition and measured after 120 mins by Hotspot assay relative to control
[8] = Half life in rat liver microsomes at 1 uM after 5 to 60 mins in presence of NADPH by LC-MS/MS analysis; assay type: ADME, Microsome
[9] = test system: MV4-11; assay: Induction of apoptosis in human MV4-11 cells assessed as late apoptotic cells at 0.1 uM after 24 hrs by Annexin V-FITC/propidium iodide staining based flow cytometric analysis (reference value: 1.42%); assay type: functional
[10] = biological target: T1, Macrophage colony-stimulating factor 1 receptor; assay: Binding affinity to wild-type human partial length autoinhibited CSF1R (Y538 to S939 residues) expressed in mammalian expression system after 60 mins by Kinomescan method
[11] = biological target: ALK tyrosine kinase receptor (Homo sapiens, UniProt Q9UM73); assay: Inhibition of human ALK using poly[Glu:Tyr] (4:1) as substrate preincubated for 20 mins followed by [gamma-33P]-ATP addition and measured after 120 mins by Hotspot assay
[12] = test system: MV4-11; assay: Induction of apoptosis in human MV4-11 cells assessed as viable cells at 1 uM after 24 hrs by Annexin V-FITC/propidium iodide staining based flow cytometric analysis (reference value: 95.19%); assay type: functional; details: MV4-11, 24 h, read-out: Activity
[13] = test system: MV4-11; assay: Induction of apoptosis in human MV4-11 cells assessed as early apoptotic cells at 1 uM after 24 hrs by Annexin V-FITC/propidium iodide staining based flow cytometric analysis (reference value: 3.39%); assay type: functional
[14] = biological target: Tyrosine-protein kinase Lck (Homo sapiens, UniProt P06239); assay: Inhibition of human LCK assessed as residual activity at 10 uM using poly[Glu:Tyr] (4:1) as substrate preincubated for 20 mins followed by [gamma-33P]-ATP addition and measured after 120 mins by Hotspot assay relative to control
[15] = test system: MCF7; assay: Growth inhibition of human MCF7 cells at 10 uM after 72 hrs by CellTiter-Glo assay relative to control; assay type: functional; details: MCF7, 72 h, read-out: GI
[16] = biological target: Serine/threonine-protein kinase Chk1 (Homo sapiens) (UniProt O14757); assay: Inhibition of human CHK1 assessed as residual activity at 10 uM using KKKVSRSGLYRSPSMPENLNRPR as substrate preincubated for 20 mins followed by [gamma-33P]-ATP addition and measured after 120 mins by Hotspot assay relative to control
[17] = biological target: Epidermal growth factor receptor (Homo sapiens) (UniProt P00533); assay: Inhibition of human EGFR assessed as residual activity at 10 uM using poly[Glu:Tyr] (4:1) as substrate preincubated for 20 mins followed by [gamma-33P]-ATP addition and measured after 120 mins by Hotspot assay relative to control
Sequence of Epidermal growth factor receptor (Homo sapiens) (P00533 whole entry): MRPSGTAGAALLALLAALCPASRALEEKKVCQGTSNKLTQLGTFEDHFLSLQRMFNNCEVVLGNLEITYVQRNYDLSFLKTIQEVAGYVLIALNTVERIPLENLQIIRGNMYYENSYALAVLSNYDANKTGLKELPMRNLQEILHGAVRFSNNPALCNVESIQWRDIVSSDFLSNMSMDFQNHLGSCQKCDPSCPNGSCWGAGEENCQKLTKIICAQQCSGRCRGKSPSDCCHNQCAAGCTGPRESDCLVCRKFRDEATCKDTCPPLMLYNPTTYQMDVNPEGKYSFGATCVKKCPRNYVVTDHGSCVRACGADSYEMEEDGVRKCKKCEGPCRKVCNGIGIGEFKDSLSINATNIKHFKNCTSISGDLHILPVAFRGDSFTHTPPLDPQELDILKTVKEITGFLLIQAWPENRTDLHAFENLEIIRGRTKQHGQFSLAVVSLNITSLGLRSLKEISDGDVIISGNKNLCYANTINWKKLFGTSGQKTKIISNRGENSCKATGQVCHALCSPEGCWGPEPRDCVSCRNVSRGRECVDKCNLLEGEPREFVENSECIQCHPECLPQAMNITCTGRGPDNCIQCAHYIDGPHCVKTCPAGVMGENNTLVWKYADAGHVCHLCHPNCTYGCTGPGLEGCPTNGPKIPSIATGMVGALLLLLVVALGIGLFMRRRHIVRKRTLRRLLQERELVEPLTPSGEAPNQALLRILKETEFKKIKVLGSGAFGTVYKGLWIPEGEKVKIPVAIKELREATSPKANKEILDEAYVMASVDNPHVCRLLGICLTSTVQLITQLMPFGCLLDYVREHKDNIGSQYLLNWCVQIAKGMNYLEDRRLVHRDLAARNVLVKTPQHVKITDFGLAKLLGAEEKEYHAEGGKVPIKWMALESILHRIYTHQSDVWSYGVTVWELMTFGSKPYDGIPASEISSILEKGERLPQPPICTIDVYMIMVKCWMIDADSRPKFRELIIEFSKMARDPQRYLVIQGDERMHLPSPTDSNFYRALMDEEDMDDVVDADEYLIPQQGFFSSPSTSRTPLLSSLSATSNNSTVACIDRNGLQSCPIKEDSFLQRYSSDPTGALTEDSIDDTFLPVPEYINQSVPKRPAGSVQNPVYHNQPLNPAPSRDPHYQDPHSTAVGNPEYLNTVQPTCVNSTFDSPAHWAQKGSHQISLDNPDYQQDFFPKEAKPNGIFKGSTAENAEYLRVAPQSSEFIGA

[18] = test system: MV4-11; assay: Induction of apoptosis in human MV4-11 cells assessed as early apoptotic cells at 0.05 uM after 24 hrs by Annexin V-FITC/propidium iodide staining based flow cytometric analysis (reference value: 3.39%); assay type: functional
[19] = biological target: Hepatocyte growth factor receptor (Homo sapiens) (UniProt P08581); assay: Inhibition of human c-MET assessed as residual activity at 10 uM using KKKSPGEYVNIEFG as substrate preincubated for 20 mins followed by [gamma-33P]-ATP addition and measured after 120 mins by Hotspot assay relative to control
Sequence of Hepatocyte growth factor receptor (Homo sapiens) (P08581 whole entry): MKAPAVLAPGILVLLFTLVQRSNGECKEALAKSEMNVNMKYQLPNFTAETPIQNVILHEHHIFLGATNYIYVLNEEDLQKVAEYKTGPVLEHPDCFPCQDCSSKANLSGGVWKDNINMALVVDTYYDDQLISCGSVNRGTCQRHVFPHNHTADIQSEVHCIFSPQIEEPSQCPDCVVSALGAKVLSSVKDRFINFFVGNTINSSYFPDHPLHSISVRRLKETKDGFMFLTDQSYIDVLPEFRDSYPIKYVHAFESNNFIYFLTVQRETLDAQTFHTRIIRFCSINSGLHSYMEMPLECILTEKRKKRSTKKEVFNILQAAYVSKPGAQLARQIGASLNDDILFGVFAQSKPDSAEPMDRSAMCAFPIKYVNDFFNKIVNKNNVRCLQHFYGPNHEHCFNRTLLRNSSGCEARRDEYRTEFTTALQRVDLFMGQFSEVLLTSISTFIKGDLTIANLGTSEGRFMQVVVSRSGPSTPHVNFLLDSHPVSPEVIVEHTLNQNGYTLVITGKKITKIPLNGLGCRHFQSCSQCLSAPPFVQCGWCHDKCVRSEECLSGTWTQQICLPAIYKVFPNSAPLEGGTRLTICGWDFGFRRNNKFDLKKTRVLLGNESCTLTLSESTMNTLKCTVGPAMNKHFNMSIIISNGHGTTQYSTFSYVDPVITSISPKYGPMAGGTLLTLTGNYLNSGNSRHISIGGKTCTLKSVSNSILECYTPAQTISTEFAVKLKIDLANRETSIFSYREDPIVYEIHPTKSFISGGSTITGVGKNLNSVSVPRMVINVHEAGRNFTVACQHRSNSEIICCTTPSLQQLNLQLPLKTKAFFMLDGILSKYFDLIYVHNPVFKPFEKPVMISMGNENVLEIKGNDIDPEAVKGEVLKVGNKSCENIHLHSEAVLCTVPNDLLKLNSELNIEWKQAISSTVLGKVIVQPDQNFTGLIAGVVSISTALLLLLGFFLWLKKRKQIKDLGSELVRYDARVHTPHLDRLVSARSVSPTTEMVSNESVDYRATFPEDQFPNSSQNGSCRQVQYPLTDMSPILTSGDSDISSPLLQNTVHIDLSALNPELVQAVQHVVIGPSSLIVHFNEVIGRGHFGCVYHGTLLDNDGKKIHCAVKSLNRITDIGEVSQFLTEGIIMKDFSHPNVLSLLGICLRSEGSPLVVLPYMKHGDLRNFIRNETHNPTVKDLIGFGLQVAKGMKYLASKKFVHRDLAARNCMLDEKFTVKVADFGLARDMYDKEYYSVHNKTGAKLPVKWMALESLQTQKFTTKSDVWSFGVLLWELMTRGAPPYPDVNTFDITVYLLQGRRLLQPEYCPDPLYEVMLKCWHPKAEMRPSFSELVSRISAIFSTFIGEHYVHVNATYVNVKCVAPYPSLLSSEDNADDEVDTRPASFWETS

[20] = biological target: Mast/stem cell growth factor receptor Kit (Homo sapiens, UniProt P10721); assay: Inhibition of human c-KIT assessed as residual activity at 10 uM using poly[Glu:Tyr] (4:1) as substrate preincubated for 20 mins followed by [gamma-33P]-ATP addition and measured after 120 mins by Hotspot assay relative to control
Sequence of Mast/stem cell growth factor receptor Kit (P10721 whole entry): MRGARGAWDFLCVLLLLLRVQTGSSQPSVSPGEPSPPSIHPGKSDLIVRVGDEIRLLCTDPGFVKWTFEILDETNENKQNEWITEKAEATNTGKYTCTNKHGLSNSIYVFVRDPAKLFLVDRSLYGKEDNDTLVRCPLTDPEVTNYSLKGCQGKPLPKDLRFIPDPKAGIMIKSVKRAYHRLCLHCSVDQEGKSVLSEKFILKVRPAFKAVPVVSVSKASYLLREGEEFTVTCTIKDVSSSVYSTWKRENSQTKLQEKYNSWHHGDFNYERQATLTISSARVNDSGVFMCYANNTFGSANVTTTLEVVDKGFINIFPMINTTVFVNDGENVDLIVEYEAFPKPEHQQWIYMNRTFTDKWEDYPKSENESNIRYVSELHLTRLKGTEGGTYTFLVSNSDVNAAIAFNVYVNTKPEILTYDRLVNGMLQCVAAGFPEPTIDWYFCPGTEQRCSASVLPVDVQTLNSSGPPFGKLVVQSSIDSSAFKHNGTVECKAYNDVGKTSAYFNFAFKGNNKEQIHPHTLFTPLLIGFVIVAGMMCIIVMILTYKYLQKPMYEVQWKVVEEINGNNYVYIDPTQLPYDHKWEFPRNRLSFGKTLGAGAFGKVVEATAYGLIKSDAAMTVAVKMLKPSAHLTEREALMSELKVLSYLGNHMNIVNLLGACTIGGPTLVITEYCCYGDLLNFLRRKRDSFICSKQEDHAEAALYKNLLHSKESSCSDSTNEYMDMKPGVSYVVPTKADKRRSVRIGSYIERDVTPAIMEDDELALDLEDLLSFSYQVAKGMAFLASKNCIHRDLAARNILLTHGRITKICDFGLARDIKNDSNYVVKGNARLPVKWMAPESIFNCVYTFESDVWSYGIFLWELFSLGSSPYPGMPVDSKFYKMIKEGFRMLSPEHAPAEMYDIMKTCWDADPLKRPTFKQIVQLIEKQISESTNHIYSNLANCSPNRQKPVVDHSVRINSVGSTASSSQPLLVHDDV

[21] = test system: MOLM-13; assay: Growth inhibition of human MOLM13 cells harboring FLT3 ITD mutant at 10 uM after 72 hrs by CellTiter-Glo assay relative to control; assay type: functional; details: MOLM-13, 72 h, read-out: GI
[22] = test system: MV4-11; assay: Cytotoxicity against human MV4-11 cells at 1 uM after 72 hrs by MTT assay; assay type: cell-based; details: mv4-11, 72 h
[23] = test system: SMMC-7721; assay: Growth inhibition of human SMMC7721 cells at 10 uM after 72 hrs by CellTiter-Glo assay relative to control; assay type: functional; details: SMMC-7721, 72 h, read-out: GI
[24] = biological target: Tyrosine-protein kinase ABL1 (Homo sapiens, UniProt P00519, H396P); assay: Binding affinity to human phosphorylated ABL1 H396P mutant (S229 to K512 residues) expressed in mammalian expression system after 60 mins by Kinomescan method
[25] = biological target: Tyrosine-protein kinase ABL1 (Homo sapiens, UniProt P00519); assay: Binding affinity to wild-type human non-phosphorylated ABL1 (S229 to K512 residues) expressed in mammalian expression system after 60 mins by Kinomescan method
[26] = biological target: Serine/threonine-protein kinase pim-1 (Homo sapiens) (UniProt P11309); assay: Inhibition of human PIM1 assessed as residual activity at 10 uM using KKRNRTLTK as substrate preincubated for 20 mins followed by [gamma-33P]-ATP addition and measured after 120 mins by Hotspot assay relative to control
[27] = biological target: Tyrosine-protein kinase ABL1 (Homo sapiens, UniProt P00519, F317I); assay: Binding affinity to human phosphorylated ABL1 F317I mutant (S229 to K512 residues) expressed in mammalian expression system after 60 mins by Kinomescan method
[28] = biological target: Tyrosine-protein kinase ABL1 (Homo sapiens, UniProt P00519, Q252H); assay: Binding affinity to human non-phosphorylated ABL1 Q252H mutant (S229 to K512 residues) expressed in mammalian expression system after 60 mins by Kinomescan method

## CN1CCC(Nc2ccc(C(=O)Nc3cc(-c4cc(C#N)cs4)n[nH]3)cc2)CC1
[1]
  viability at 0.5 µM: 39.8%
[2]
  inhibition of growth at 10 µM: 1.3%
[3]
  Kd: 47 nM
[4]
  viability at 0.05 µM: 59.6%
[5]
  Activity: Dose-dependent effect
[6]
  Activity: 98.4%
[7]
  Activity: 91.9%
[8]
  half-life at 1 µM: 8.1 min
[9]
  Activity: 15.97%
[10]
  Kd: 84 nM
[11]
  IC50: 5140 nM
[12]
  viability at 1 µM: 34.5%
[13]
  Activity: 31.43%
[14]
  Activity: 8.39%
[15]
  inhibition of growth at 10 µM: 0.83%
[16]
  Activity: 11.8%
[17]
  Activity: 65.5%
[18]
  Activity: 21.04%
[19]
  Activity: 74.5%
[20]
  Activity: 14.4%
[21]
  inhibition of growth at 10 µM: 92.1%
[22]
  Activity: Non-Toxic
[23]
  inhibition of growth at 10 µM: 1.47%
[24]
  Kd: 390 nM
[25]
  Kd: 370 nM
[26]
  Activity: 5.11%
[27]
  Kd: > 10000 nM
[28]
  Kd: 350 nM
